From EP4389827A1, “AMINOGLYCOSIDE-LINKED PHOTOSENSITIZERS” (Centre National de la Recherche Scientifique, priority 2022, dated 2024)
Values joined by “and” are separate entries in the source; they are usually repeats but may differ in a detail not shown here. Equal values may be shown once. Read-outs that look alike come from different tables or passages of the source.

What was measured:
S. aureus Newman [1] = assay: Antibacterial photodynamic therapy on planktonic cells (CFU count); assay type: cell-based, Staphylococcus aureus; settings: Staphylococcus aureus, NEWMAN, light or radiation study, 0.5 h, 10 µM, irradiated 660 nm 30 minutes, 5 J/mm^2, read-out: Mean CFU drop (survival dropped by)
Method: (§1) Acinetobacter baumannii DSM30011, Bacillus subtilis 168, Pseudomonas aeruginosa PA14, P. aeruginosa PAO1, Staphylococcus aureus Mu50, S. aureus Newman and S. aureus USA300 were all grown in MHB-CA at 37°C with an agitation of 180 rpm. Candida albicans SC5314 was grown in yeast extract peptone dextrose broth at 35°C with an agitation of 180 rpm.
(§2) Cells were brought to stationary phase by incubating them in MHB-CA for at least 18 hours at 37°C with 180 rpm and diluted to an optical density of 1.0 just before the experiment. Cells were incubated for 20 minutes with either the compounds, photosensitizers alone, or aminoglycosides alone. Unless stated otherwise, a concentration of 10 µM was used for all experiments and samples were irradiated for 30 minutes at 660 nm with the Solis-660C lamp from ThorLabs, receiving a total of 5 J/mm^2. After illumination, cells were washed with phosphate-buffered saline (PBS) 1X, serially diluted and plated on Mueller-Hinton agar. The next day, colony forming units (CFUs) were counted.

S. aureus Mu50 [2] = assay: as above; assay type: cell-based, Staphylococcus aureus; settings: for log reduction at 10 µM: Staphylococcus aureus, MU50, light or radiation study, 0.5 h, irradiated 660 nm 30 minutes, 5 J/mm^2, read-out: Mean CFU drop (survival dropped by)
Method: as §1, §2

S. aureus Newman [3] = assay: Minimal inhibitory concentration (EUCAST), with or without 660 nm irradiation; assay type: cell-based, Staphylococcus aureus; settings: for MIC: Staphylococcus aureus, NEWMAN, light or radiation study, 18 h, read-out: MIC
Method: as §1
(§3) Minimal inhibitory concentrations (MICs) for selected bacteria were investigated according to the EUCAST guidelines. Serial dilutions of the compounds, photosensitizers and aminoglycosides were made in MHB-CA in 384-well plates. Stationary-phase cells were diluted in MHB-CA to have a final concentration of 5.5 × 10^5 CFU/mL. Samples were incubated in the dark for 20 minutes at 37°C and either irradiated at 660 nm for 30 minutes with a LED device or kept in the dark. Irradiated samples received a total of 168 mJ/mm^2. Plates were then incubated at 37°C for 18 hours and MICs were evaluated visually. Triplicates were done and the synergy, or fractional inhibitory concentration (FIC), was calculated according to Doern et al., 2014: FIC = (MIC of AB)/(MIC of A) + (MIC of AB)/(MIC of B) [formula]

S. aureus Mu50 [4] = assay: as above; assay type: cell-based; settings: Staphylococcus aureus, MU50, light or radiation study, 18 h, read-out: MIC
Method: as §1, §3

S. aureus USA300 [5] = assay: as above; assay type: cell-based; settings: Staphylococcus aureus, USA300, light or radiation study, 18 h
Method: as §1, §3

P. aeruginosa PA14 [6] = assay: as above; assay type: cell-based, Pseudomonas aeruginosa; settings: for MIC: read-out: MIC
Method: as §1, §3

P. aeruginosa PAO1 [7] = assay: as above; assay type: cell-based, Pseudomonas aeruginosa; settings: for MIC: Pseudomonas aeruginosa, PAO1, light or radiation study, 18 h, read-out: MIC
Method: as §1, §3

S. aureus Newman [8] = assay: Antibacterial photodynamic therapy on biofilm cells; assay type: cell-based, Staphylococcus aureus
Description: (§4) Compounds Neo-Ce6 and Tobra-Ce6 caused strong drop in survival for biofilms of A. baumannii […], P. aeruginosa species and S. aureus Mu50. […] Tobra-Ce6 had its strongest effect on A. baumannii DSM30011 with more than 4 log10 CFU/mL drop in survival and a drop of 1.7 log10 CFU/mL in P. aeruginosa PA14. Table 2: aPDT results for biofilm cells expressed in drop in the log10 CFU/mL compared to controls.

S. aureus Mu50 [9] = assay: as above; assay type: cell-based, Staphylococcus aureus
Description: as §4

S. aureus USA300 [10] = assay: as above; assay type: cell-based, Staphylococcus aureus
Description: as §4

P. aeruginosa PA14 [11] = assay: as above; assay type: cell-based, Pseudomonas aeruginosa
Description: as §4

P. aeruginosa PAO1 [12] = assay: as above; assay type: cell-based, Pseudomonas aeruginosa
Description: as §4

[13] = test system: S. aureus USA300 persister cells; assay: Antibacterial photodynamic therapy on persister cells; assay type: cell-based, Staphylococcus aureus; settings: persister cells (6 hours, 2 mM neomycin); aPDT at 10 µM, 5 J/mm^2 (Figure 6a)
Method: Persister plateau and AG concentration varied from one species to another. In S. aureus USA300, a stable plateau was obtained following 6 hours of incubation with 2 mM of neomycin. […] This control is crucial to make sure that a persister state has been achieved. […] As there are no significant differences between irradiated and non-irradiated samples, however, the production of singlet oxygen may not be the factor leading to cell death. In S. aureus Newman, cells were treated for 24 hours with 1 mM of neomycin. […] Although this synergy does exist, like in S. aureus USA300, there is no significant difference in survival for irradiated and non-irradiated samples, except for Ce6.

Solubility in water = assay type: physicochemical
A. baumannii DSM30011 = assay: Antibacterial photodynamic therapy on biofilm cells; assay type: cell-based, Acinetobacter baumannii
Description: as §4

S. aureus USA300 [14] = assay: Antibacterial photodynamic therapy on planktonic cells (CFU count); assay type: cell-based; settings: Staphylococcus aureus, USA300, light or radiation study, 0.5 h, irradiated 660 nm 30 minutes, 5 J/mm^2, read-out: Mean CFU drop (survival dropped by)
Method: as §1, §2

[15] = with (+) irradiation, 660 nm 30 minutes, 168 mJ/mm^2
[16] = conjugate with irradiation, from FIC

C=Cc1c(C)c2cc3nc(c(CC(=O)O)c4[nH]c(cc5nc(cc1[nH]2)C(C)=C5CC)c(C)c4C(=O)O)[C@@H](CCC(=O)O)[C@@H]3C [Ce6, chlorin e6]
log reduction at 10 µM (S. aureus Newman [1]): ~3.6
log reduction at 10 µM (S. aureus Mu50 [2]): 3.2
MIC (S. aureus Newman [3]; [15]): 64 µM
MIC (S. aureus Newman [3]; without (-) irradiation): > 64 µM
MIC (S. aureus Mu50 [4]; [15]): 4 µM
MIC (S. aureus Mu50 [4]; without (-) irradiation): > 64 µM
MIC (S. aureus USA300 [5]; [15]): 16 to 32 µM
MIC (S. aureus USA300 [5]; without (-) irradiation): > 64 µM
MIC (P. aeruginosa PA14 [6]; Pseudomonas aeruginosa, PA14, light or radiation study, 18 h, without (-) irradiation): > 64 µM
MIC (P. aeruginosa PA14 [6]; [15]): > 64 µM
MIC (P. aeruginosa PAO1 [7]; [15]): > 64 µM
MIC (P. aeruginosa PAO1 [7]; without (-) irradiation): > 64 µM
drop in the log10 CFU/mL compared to controls (S. aureus Newman [8]; + irradiation): 0.57 log10 CFU/mL
drop in the log10 CFU/mL compared to controls (S. aureus Newman [8]; - irradiation): -0.19 log10 CFU/mL
drop in the log10 CFU/mL compared to controls (S. aureus Mu50 [9]; + irradiation): 0.36 log10 CFU/mL
drop in the log10 CFU/mL compared to controls (S. aureus Mu50 [9]; - irradiation): -0.005 log10 CFU/mL
drop in the log10 CFU/mL compared to controls (S. aureus USA300 [10]; + irradiation): 0.73 log10 CFU/mL
drop in the log10 CFU/mL compared to controls (S. aureus USA300 [10]; - irradiation): 0.33 log10 CFU/mL
drop in the log10 CFU/mL compared to controls (P. aeruginosa PA14 [11]; + irradiation): 0.60 log10 CFU/mL
drop in the log10 CFU/mL compared to controls (P. aeruginosa PA14 [11]; - irradiation): 0.29 log10 CFU/mL
drop in the log10 CFU/mL compared to controls (P. aeruginosa PAO1 [12]; + irradiation): 0.25 log10 CFU/mL
drop in the log10 CFU/mL compared to controls (P. aeruginosa PAO1 [12]; - irradiation): 0.28 log10 CFU/mL
persister cell survival (in words) [13]: some killing
solubility (Solubility in water): poorly soluble in water
drop in the log10 CFU/mL compared to controls (A. baumannii DSM30011; + irradiation): 0.71 log10 CFU/mL
drop in the log10 CFU/mL compared to controls (A. baumannii DSM30011; - irradiation): 0.45 log10 CFU/mL
log reduction at 10 µM (S. aureus USA300 [14]): 3.2

C=Cc1c(C)c2cc3nc(c(CC(=O)O)c4[nH]c(cc5nc(cc1[nH]2)C(C)=C5CC)c(C)c4C(=O)O)[C@@H](CCC(=O)NC[C@H]1O[C@H](O[C@@H]2[C@@H](O)[C@H](O[C@H]4O[C@H](CN)[C@@H](O)C[C@H]4N)[C@@H](N)C[C@H]2N)[C@H](O)[C@@H](N)[C@@H]1O)[C@@H]3C [Tobra-Ce6]
log reduction at 10 µM (S. aureus Newman [1]): ~3.9
log reduction at 10 µM (S. aureus Mu50 [2]): 5.4
survival (in words) (S. aureus Mu50 [2]; irradiated samples, 5 J/mm^2 (Figure 3a)): high bacterial death
MIC (S. aureus Newman [3]; [15]): 2 µM
MIC (S. aureus Newman [3]; without (-) irradiation): > 16 µM
Synergy (S. aureus Newman [3]; [16]): +
MIC (S. aureus Mu50 [4]; [15]): 2 to 4 µM
MIC (S. aureus Mu50 [4]; without (-) irradiation): 16 µM
MIC (S. aureus USA300 [5]; [15]): 2 to 4 µM
MIC (S. aureus USA300 [5]; without (-) irradiation): > 16 µM
MIC (P. aeruginosa PA14 [6]; Pseudomonas aeruginosa, PA14, light or radiation study, 18 h, with (+) irradiation, 660 nm 30 minutes, 168 mJ/mm^2): > 16 µM
Synergy (P. aeruginosa PA14 [6]; [16]): -
MIC (P. aeruginosa PA14 [6]; without (-) irradiation): > 16 µM
MIC (P. aeruginosa PAO1 [7]; [15]): 4 to 8 µM
MIC (P. aeruginosa PAO1 [7]; without (-) irradiation): > 16 µM
Synergy (P. aeruginosa PAO1 [7]; [16]): -
drop in the log10 CFU/mL compared to controls (S. aureus Newman [8]; + irradiation): 1.36 log10 CFU/mL
drop in the log10 CFU/mL compared to controls (S. aureus Newman [8]; - irradiation): 0.49 log10 CFU/mL
drop in the log10 CFU/mL compared to controls (S. aureus Mu50 [9]; + irradiation): 1.32 log10 CFU/mL
drop in the log10 CFU/mL compared to controls (S. aureus Mu50 [9]; - irradiation): 0.37 log10 CFU/mL
drop in the log10 CFU/mL compared to controls (S. aureus USA300 [10]; + irradiation): 0.14 log10 CFU/mL
drop in the log10 CFU/mL compared to controls (S. aureus USA300 [10]; - irradiation): 0.28 log10 CFU/mL
drop in the log10 CFU/mL compared to controls (P. aeruginosa PA14 [11]; + irradiation): 1.7 log10 CFU/mL and 1.69 log10 CFU/mL
drop in the log10 CFU/mL compared to controls (P. aeruginosa PA14 [11]; - irradiation): 0.85 log10 CFU/mL
drop in the log10 CFU/mL compared to controls (P. aeruginosa PAO1 [12]; + irradiation): 1.25 log10 CFU/mL
drop in the log10 CFU/mL compared to controls (P. aeruginosa PAO1 [12]; - irradiation): 0.79 log10 CFU/mL
persister cell survival (in words) [13]: close to or under the detection limit
solubility (Solubility in water): highly soluble
drop in the log10 CFU/mL compared to controls (A. baumannii DSM30011; - irradiation): 1.58 log10 CFU/mL
log reduction at 10 µM (S. aureus USA300 [14]): 3.5
